Source: ChEMBL document CHEMBL1201862, “PubChem BioAssay data set” (2004)
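Exposure lasted 48 hours, with cells grown in 96-well plates and compounds tested at five concentrations. GI50 is the concentration that inhibits growth by half.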 Activity calls are given as the source filed them. Cut-off read from the data, not from the text of the source: active = GI50 up to about 1.1 µM and inactive = higher.

How the values were obtained:
Test in all cases: NCI tumour cell line growth inhibition, 48 h
[1] = test system: 786-0
[2] = test system: A498
[3] = test system: A549
[4] = test system: ACHN
[5] = test system: CAKI-1
[6] = test system: CCRF-CEM
[7] = test system: COLO 205
[8] = test system: DLD-1
[9] = test system: DMS-114
[10] = test system: DMS-273
[11] = test system: EKVX
[12] = test system: HCC 2998
[13] = test system: HCT-15
[14] = test system: HL-60
[15] = test system: HOP-62
[16] = test system: HOP-92
[17] = test system: HT-29
[18] = test system: IGROV-1
[19] = test system: K562
[20] = test system: KM12
[21] = test system: LOX IMVI
[22] = test system: LXFL 529
[23] = test system: M14
[24] = test system: M19-MEL
[25] = test system: MOLT-4
[26] = test system: Malme-3M
[27] = test system: NCI-H226
[28] = test system: NCI-H23
[29] = test system: NCI-H460
[30] = test system: NCI-H522
[31] = test system: OVCAR-3
[32] = test system: OVCAR-4
[33] = test system: OVCAR-5
[34] = test system: OVCAR-8
[35] = test system: RPMI-8226
[36] = test system: RXF 393
[37] = test system: SF-268
[38] = test system: SF-295
[39] = test system: SF-539
[40] = test system: SK-MEL-28
[41] = test system: SK-MEL-2
[42] = test system: SK-MEL-5
[43] = test system: SK-OV-3
[44] = test system: SN12C
[45] = test system: SNB-19
[46] = test system: SNB-75
[47] = test system: SNB-78
[48] = test system: SW-620
[49] = test system: TK-10
[50] = test system: UACC-257
[51] = test system: UACC-62
[52] = test system: UO-31
[53] = test system: XF498
[54] = test system: BT-549
[55] = test system: DU-145
[56] = test system: HCT-116
[57] = test system: HOP-18
[58] = test system: Hs-578T
[59] = test system: KM-20L2
[60] = test system: MCF7
[61] = test system: MDA-MB-231
[62] = test system: MDA-MB-435
[63] = test system: MDA-N
[64] = test system: NCI/ADR-RES
[65] = test system: PC-3
[66] = test system: SR
[67] = test system: T47D
[68] = test system: U-251

Question: With `O=C1NC(=O)C2C(=O)NC(=O)C1C2(c1ccccc1)c1cc[nH]c1` (configuration not stated) as the compound, how does the GI50 [1] read?
Answer: Its GI50 is > 100 µM (inactive).

Question: What about the GI50 [2] of the same compound?
Answer: The GI50 was > 100 µM (inactive).

Question: And the GI50 [3]?
Answer: Its GI50 is > 100 µM (inactive).

Question: What about the GI50 [4] of the same compound?
Answer: Its GI50 is > 100 µM (inactive).

Question: And the GI50 [5]?
Answer: The GI50 was > 100 µM (inactive).

Question: And the GI50 [6]?
Answer: Its GI50 is > 100 µM (inactive).

Question: What about the GI50 [7] of the same compound?
Answer: The GI50 was > 100 µM (inactive).

Question: What about the GI50 [8] of the same compound?
Answer: The GI50 was > 100 µM (inactive).

Question: What about the GI50 [9] of the same compound?
Answer: Its GI50 is > 100 µM (inactive).

Question: What about the GI50 [10] of the same compound?
Answer: The GI50 was > 100 µM (inactive).

Question: What about the GI50 [11] of the same compound?
Answer: Its GI50 is > 100 µM (inactive).

Question: And the GI50 [12]?
Answer: The GI50 was > 100 µM (inactive).

Question: And the GI50 [13]?
Answer: Its GI50 is over 100 µM.

Question: What about the GI50 [14] of the same compound?
Answer: The GI50 was > 100 µM (inactive).

Question: And the GI50 [15]?
Answer: The GI50 was > 100 µM (inactive).

Question: And the GI50 [16]?
Answer: The GI50 was > 100 µM (inactive).

Question: What about the GI50 [17] of the same compound?
Answer: Its GI50 is > 100 µM (inactive).

Question: What about the GI50 [18] of the same compound?
Answer: The GI50 was > 100 µM (inactive).

Question: And the GI50 [19]?
Answer: Its GI50 is > 100 µM (inactive).

Question: What about the GI50 [20] of the same compound?
Answer: The GI50 was > 100 µM (inactive).

Question: What about the GI50 [21] of the same compound?
Answer: The GI50 was > 100 µM (inactive).

Question: And the GI50 [22]?
Answer: Its GI50 is > 100 µM (inactive).

Question: What about the GI50 [23] of the same compound?
Answer: Its GI50 is > 100 µM (inactive).

Question: What about the GI50 [24] of the same compound?
Answer: Its GI50 is > 100 µM (inactive).

Question: And the GI50 [25]?
Answer: Its GI50 is > 100 µM (inactive).

Question: What about the GI50 [26] of the same compound?
Answer: The GI50 was > 100 µM (inactive).

Question: And the GI50 [27]?
Answer: The GI50 was > 100 µM (inactive).

Question: And the GI50 [28]?
Answer: Its GI50 is > 100 µM (inactive).

Question: And the GI50 [29]?
Answer: Its GI50 is > 100 µM (inactive).

Question: And the GI50 [30]?
Answer: The GI50 was > 100 µM (inactive).

Question: And the GI50 [31]?
Answer: The GI50 was > 100 µM (inactive).

Question: And the GI50 [32]?
Answer: The GI50 was > 100 µM (inactive).

Question: And the GI50 [33]?
Answer: The GI50 was > 100 µM (inactive).

Question: What about the GI50 [34] of the same compound?
Answer: Its GI50 is > 100 µM (inactive).

Question: And the GI50 [35]?
Answer: The GI50 was > 100 µM (inactive).

Question: What about the GI50 [36] of the same compound?
Answer: Its GI50 is > 100 µM (inactive).

Question: And the GI50 [37]?
Answer: The GI50 was > 100 µM (inactive).

Question: And the GI50 [38]?
Answer: The GI50 was > 100 µM (inactive).

Question: What about the GI50 [39] of the same compound?
Answer: The GI50 was > 100 µM (inactive).

Question: What about the GI50 [40] of the same compound?
Answer: Its GI50 is > 100 µM (inactive).

Question: And the GI50 [41]?
Answer: The GI50 was > 100 µM (inactive).

Question: What about the GI50 [42] of the same compound?
Answer: The GI50 was > 100 µM (inactive).

Question: And the GI50 [43]?
Answer: Its GI50 is > 100 µM (inactive).

Question: And the GI50 [44]?
Answer: Its GI50 is > 100 µM (inactive).

Question: What about the GI50 [45] of the same compound?
Answer: Its GI50 is > 100 µM (inactive).

Question: What about the GI50 [46] of the same compound?
Answer: Its GI50 is > 100 µM (inactive).

Question: What about the GI50 [47] of the same compound?
Answer: Its GI50 is > 100 µM (inactive).

Question: And the GI50 [48]?
Answer: Its GI50 is > 100 µM (inactive).

Question: What about the GI50 [49] of the same compound?
Answer: Its GI50 is > 100 µM (inactive).

Question: What about the GI50 [50] of the same compound?
Answer: Its GI50 is > 100 µM (inactive).

Question: What about the GI50 [51] of the same compound?
Answer: The GI50 was > 100 µM (inactive).

Question: What about the GI50 [52] of the same compound?
Answer: Its GI50 is 74.6 µM (inactive).

Question: And the GI50 [53]?
Answer: The GI50 was > 100 µM (inactive).

Question: Which results are given for `Cc1c2cc[n+](CCN3CCCCC3)cc2c(C)c2c1[nH]c1ccc(O)cc12`?
Answer: GI50 [1]: 2.41 µM (inactive); GI50 [2]: 10.6 µM (inactive); GI50 [3]: 1.35 µM (inactive); GI50 [4]: 5.92 µM (inactive); GI50 [54]: 11.8 µM (inactive); GI50 [5]: 5.48 µM (inactive); GI50 [6]: 1.11 µM (active); GI50 [7]: 1.66 µM (inactive); GI50 [8]: 4.6 µM (inactive); GI50 [9]: 1.51 µM (inactive); GI50 [10]: 1.72 µM (inactive); GI50 [55]: 1.89 µM (inactive); GI50 [11]: 3.92 µM (inactive); GI50 [12]: 3.12 µM (inactive); GI50 [56]: 2.58 µM (inactive); GI50 [13]: 12.5 µM; GI50 [14]: 1.69 µM (inactive); GI50 [57]: 13.1 µM (inactive); GI50 [15]: 2.32 µM (inactive); GI50 [16]: 5.11 µM (inactive); GI50 [17]: 8 µM (inactive); GI50 [58]: 2.84 µM (inactive); GI50 [18]: 2.89 µM (inactive); GI50 [19]: 2.69 µM (inactive); GI50 [59]: 6.43 µM (inactive); GI50 [20]: 1.64 µM (inactive); GI50 [21]: 4.41 µM (inactive); GI50 [23]: 9.27 µM (inactive); GI50 [24]: 0.982 µM (active); GI50 [60]: 1.76 µM (inactive); GI50 [61]: 9.93 µM (inactive); GI50 [62]: 10.2 µM (inactive); GI50 [63]: 12.1 µM (inactive); GI50 [26]: 2.39 µM (inactive); GI50 [28]: 5.46 µM (inactive); GI50 [29]: 0.418 µM (active); GI50 [30]: 1.99 µM (inactive); GI50 [64]: 16.3 µM (inactive); GI50 [31]: 6.05 µM (inactive); GI50 [32]: 1.13 µM (inactive); GI50 [33]: 10.5 µM (inactive); GI50 [34]: 2.04 µM (inactive); GI50 [65]: 7.96 µM (inactive); GI50 [35]: 2.48 µM (inactive); GI50 [36]: 5.2 µM (inactive); GI50 [37]: 1.4 µM (inactive); GI50 [38]: 1.47 µM (inactive); GI50 [39]: 3.45 µM (inactive); GI50 [40]: 6.1 µM (inactive); GI50 [41]: 11.9 µM (inactive); GI50 [42]: 2.54 µM (inactive); GI50 [43]: 3.02 µM (inactive); GI50 [44]: 0.401 µM (active); GI50 [45]: 1.16 µM (inactive); GI50 [46]: 0.647 µM (active); GI50 [47]: 3.75 µM (inactive); GI50 [66]: 0.0723 µM (active); GI50 [48]: 3.19 µM (inactive); GI50 [67]: 2.82 µM (inactive); GI50 [49]: 15.1 µM (inactive); GI50 [68]: 0.8 µM (active); GI50 [50]: 13.7 µM (inactive); GI50 [51]: 5.47 µM (inactive); GI50 [52]: 17.1 µM (inactive)
